How the values were obtained:
FL5-12 lymphocytes = test: IL3 depletion competition assay for cytokine-independent survival of FL5-12 lymphocytes; type: cell-based, murine; settings: for IL-3 independence of FL5-12 cells: retest of individual miRNAs from secondary library screen
Procedure: An established in vitro assay of hematopoietic transformation (Plas, Talapatra, Edinger, Rathmell, & Thompson, 2001) was used to identify the key oncogenic activities within the 17˜92 cluster and its paralogues. All miRNAs representing families of unique seed sequences, specifically miR-17, miR-18a, miR-19b-1 (miR-19), miR-20a, miR-106a, miR-106b and miR-25 were tested (FIG. 1a). The assay is based on the IL3 dependence of FL5-12 lymphocytes, which undergo apoptosis when removed from IL3. In competition experiments, FL5-12 cells were partially transduced with GFP plus individual miRNAs or empty vector and these mixed populations were monitored by fluorescence-activated cell sorting (FACS) for changes in their relative proportions (FIG. 1b).
FL5-12 murine lymphocytes, IL3 depletion studies and viral transductions were as described (Mavrakis, et al., 2008) (Plas, Talapatra, Edinger, Rathmell, & Thompson, 2001). Cell cycle and cell death assays based on uptake of DNA staining dye (LDS751) using Cell cycle and Viacount assays from Guava Technologies were performed as reported (Mavrakis, et al., 2008). The retroviral vectors are based on murine stem cell virus (MSCV) and include the miRNA expression vectors encoding miRs 17, 18a, 19b-1 (miR-19), 106a, 106b, 25 (He, et al., 2005), the vectors encoding Notch-ICN (a gift from W. Pear) (Pear, et al., 1996) and Bcl2 (Wendel, et al., 2004), the individual shRNA vectors (FIG. 17) and the library vector (MRP) (FIGS. 18a and b). miRNA inhibitor oligonucleotides (antagomirs) MZIP19a-PA-1, MZIP19b-PA-1, and scrambled control (MZIP000-PA-1) were from System Biosciences.
The primary screen is based on c-MYC-induced apoptosis in MEFs (Evan, et al., 1992). MEFs were transduced with c-MYC and the miRNA library and cultured in puromycin to select for homogeneous c-MYC expression; apoptosis was triggered by diluting serum from 10% to 0.1%. Surviving cells remained adherent and were collected for DNA isolation, PCR amplification of the integrated miRNA library constructs, sub-cloning into pGEM-T vector, bacterial transformation, and sequence identification of ˜100 colonies. A secondary library was constructed by sub-cloning all miRNAs from the primary screen into an MSCV construct. The secondary screen is based on the IL-3 dependence of FL5-12 lymphocytes in vitro (Mavrakis, et al., 2010), (Plas, Talapatra, Edinger, Rathmell, & Thompson, 2001). FL5-12 cells were partially transduced with the pooled, GFP-tagged library and selected by IL-3 depletion. miRNAs were identified as above. Individual miRNAs were subsequently validated in the same FL5-12 assay and in vivo.

T-ALL1 cells [1] = test: Cell number during in vitro culture of T-ALL1 cells expressing antagomirs; type: cell-based, human; settings: T-ALL1, 6 d culture
Procedure: (§1) Given the pleiotropic and partially overlapping pattern of tumor suppressor gene regulation by multiple miRNAs, the effect of miRNA antagomirs on the growth rate and viability of two human T-ALL cell lines, T-ALL1 and Koptk1, were assessed. The human T-ALL1 cell line expresses high levels of miR-19a, miR-19b, miR-26a and miR-92 but only low levels of other miRNAs, e.g. miR-148a and the randomly chosen miR-182 (FIG. 27b inset). […] Results in the Koptk1 cell line were analogous to those in the T-ALL1 cell line (FIG. 28).
(§2) FL5-12 murine pro B-lymphocytes, cell cycle and apoptosis studies and viral transductions were as described (Mavrakis, et al., 2008), (Plas, Talapatra, Edinger, Rathmell, & Thompson, 2001). T-ALL cell lines, including Jurkat, were cultured in RPMI 1640 medium supplemented with 10-20% fetal calf serum, 100 U/ml penicillin G and 100 μg/ml streptomycin at 37° C. in a humidified atmosphere under 5% CO2. All vectors are based on murine stem cell virus (MSCV) and include the miRNA expression vector encoding all miRNAs described (He, et al., 2005), NOTCH1-ICN (Pear, et al., 1996) and the individual shRNA vectors (protein knockdown by shRNAs; FIG. 10). The miRNA pooled library (He, et al., 2005) is a generous gift from G. J. Hannon and has been expanded by PCR cloning to contain ˜300 miRNAs. The antagomirs MZIP19a-PA-1, MZIP19b-PA-1, MZIP26a-PA-1, MZIP92a-PA-1, MZIP148a-PA-1, MZIP182-PA1, MZIP223-PA-1 and scrambled control (MZIP000-PA-1) were from System Biosciences.

PTEN and BCL2L11 = test: Quantitative RT-PCR of BCL2L11 and PTEN mRNA in T-ALL1 cells; type: cell-based, human
Description: (§3) Total RNA and miRNA-enriched RNA was extracted using the Allprep DNA/RNA/Protein and miRNeasy Mini kits. Pathological diagnosis was by expert hematopathologists at Weill Cornell Medical Center. cDNA synthesis, PCR and analysis by the ΔΔ Ct method were as described (Mavrakis, et al., 2008) and utilized Taqman Gene Expression Assays: Bcl2l11 (Mm00437796_m1), BCL2L11 (Hs00197982_m1), Pten (Mm01212532_m1), PTEN (Hs02621230_s1), Nf1 (Mm00812430_m1), NF1 (Hs01035104_m1), Ikzf1 (Mm01187878_m1), IKZF1 (Hs00172991_m1), Fbxw7 (Mm00504452_m1), FBXW7 (Hs00217794_m1), Phf6 (Mm00804415_m1), and Mouse GAPD (GAPDH) (4352932, Applied Biosystems). Expression was normalized to RNU6B (001093, Applied Biosystems).

T-ALL1 cells [2] = test: Viability of T-ALL1 cells transduced with antagomirs; type: cell-based, human
Procedure: as §1, §2

[3] = system: PTEN, BCL2L11, PHF6, IKZF1, NF1, FBXW7; test: 3′UTR reporter, quantitative PCR and immunoblot assays of tumor suppressor genes in murine leukemias; type: cell-based; settings: murine T-ALLs expressing NOTCH1 and miRNA, mRNA, protein
Procedure: Immunoblots of whole cell lysates were performed as described (Wendel, et al., 2004). Antibodies were against Bim/Bcl2l11 (AAP-330, 1:1000, Assay Designs), Nf1 (sc67, 1:100, Santa Cruz), Cdc4/Fbxw7 (ab7405, 1:500, Abeam), Ikzf1 (sc-13039, 1:500, Santa Cruz), Phf6 (NB100-79861, 1:1000, Novus Biologicals), Pten (9559, 1:1000, Cell Signaling), tubulin (1:5000; Sigma, B-5-1-2) and actin (1:5000; Sigma, AC-15).
as §3
The mouse FBXW7 (bp 2793-4139; acc. no. NM_001177773), human NF1 (bp 10033-10666; acc. no NM_000267), human PHF6 (bp position 3271-4299; acc. no. NM_001015877) and Bim (bp. 3155-4773; acc. no. NM_009754) 3′UTR fragments were generated by PCR and cloned into the psi-CHECK-2 vector (Promega) with the exception of the IKZF1 3′UTR, which was purchased from Genecopoeia (cat no. HmiT000397b, by 2343-4471 of UTR). The assays were performed as described (Xiao, et al., 2008).

Molecule	enrichment of cells co-expressing miR-19/GFP following IL3 depletion (FL5-12 lymphocytes; treated with 1 μM metformin to activate AMP-kinase)	growth rate (T-ALL1 cells [1])	expression of PTEN and BCL2L11 (PTEN and BCL2L11)	cell viability (T-ALL1 cells [2])	regulation of tumor suppressor genes [3]	IL-3 independence of FL5-12 cells (FL5-12 lymphocytes)
CN(C)C(=N)N=C(N)N [metformin, reference compound]	Neither the other cDNAs nor metformin treatment abrogated miR-19's protective function	–	–	–	–	–
TATTGCAATTGTCCCGGACTATCTTCCTGTCAGACAGGCCGGGACAAGTGCAATATTTTT (listed as DNA, chemistry not fully specified) [antagomir against miR-92, antagomir to miR92a, miRZIP from System Biosciences]	–	reduce growth rate	de-repress the tumor suppressor genes PTEN and BCL2L11	significantly decrease cell viability	–	–
TCAGTGCGCTACAGAACGTTATCTTCCTGTCAGACAAAGTTCTGTAGTGCACTGATTTTT (listed as DNA, chemistry not fully specified) [antagomir against miR-148a, antagomir to miR148, miRZIP from System Biosciences]	–	no significant (p>0.05) effect	no significant (p>0.05) effect	no significant (p>0.05) effect	–	–
TTCAAGTGATCCAGGATCGGATCTTCCTGTCAGAGCCTATCCTGGATTACTTGAATTTTT (listed as DNA, chemistry not fully specified) [antagomir against miR-26a, antagomir to miR26a, miRZIP from System Biosciences]	–	reduce growth rate	de-repress the tumor suppressor genes PTEN and BCL2L11	significantly decrease cell viability	–	–
miR-20a: miRNA, UAAAGUGCUUAUAGUGCAGGUAG (SEQ ID NO: 3) (expressed or natural sequence; listed as Homo sapiens)	–	–	–	–	reduce levels of PTEN and PHF6 protein and mRNA in leukemic cells	–
miR-26: miRNA, UUCAAGUAAUCCAGGAUAGGCU (SEQ ID NO: 5) (expressed or natural sequence; listed as Homo sapiens)	–	–	–	–	reduce levels of PTEN and PHF6 protein and mRNA in leukemic cells	confirmed to confer IL-3 independence on FL5-12 cells
miR-92: miRNA, UAUUGCACUUGUCCCGGCCUGU (SEQ ID NO: 6) (expressed or natural sequence; listed as Homo sapiens)	–	–	–	–	affects IKZF1 and FBWX7 but does not target the murine NF1	–
miR-223: miRNA, UGUCAGUUUGUCAAAUACCCCA (SEQ ID NO: 10) (expressed or natural sequence; listed as Homo sapiens)	–	–	–	–	strongly regulates FBXW7 reporter activity and protein levels	confirmed to confer IL-3 independence on FL5-12 cells
TTTGGCACTGGTAGAACTCCCAATCTTCCTGTCAGAGTGTGAGTTCTACCATTGCCAAATTTTT (nucleic acid, listed as DNA, chemistry not fully specified, control antagomir to the randomly chosen miR-182) antisense: TTTGGCACTGGTAGAACTCCCAATCTTCCTGTCAGAGTGTGAGTTCTACCATTGCCAAATTTTT	–	no significant (p>0.05) effect	no significant (p>0.05) effect	no significant (p>0.05) effect	–	–
